We go through 6 molecules from patent publication US20060141024A1, “Synergistic combination kit of alpha,beta-arteether, sulfadoxin and pyrimethamine for treatment of severe/multi-drug resistant cerebral malaria” (COUNCIL OF SIENTIFIC AND INDUSTRIAL RESEARCH, priority 2004, published 2006).

In general, LD50 refers to the dose expected to kill half of the subjects tested.

Read-outs that look alike come from different tables or passages of the source.

For data set [1], the system named is cerebral malaria. As to conditions: comatose cerebral malaria cases; quinine intravenous; cited from earlier work.
In data set [2] the test system is uncomplicated malaria. As to conditions: cited from earlier work.
The conditions of data set [3]: im, swiss mice; cited from earlier work.
Data set [4] deals with P. falciparum. As to conditions: cited from earlier work.
The subject of data set [5] is multi drug resistant P. yoelii nigeriensis. Briefly: Arteether (im, x3) and Fansidar (oral, x1) in combination against multi drug resistant P. yoelii nigeriensis infection in Swiss mice. It counts as in vivo, Plasmodium yoelii nigeriensis. On the procedure: Experimental: Swiss mice (20±2 g) were inoculated intra peritoneal with 1×10^6 Plasmodium yoelii nigeriensis (malaria parasite) infected mouse red blood cells. Fansidar was suspended in tween 80 and then in triple distilled water and two different doses, i.e. 1.25-2.5 mg/kg were administered in previously infected Swiss mice. Fansidar was administered by oral route for only 1 day. α/β Arteether was dissolved in neutralized and sterilized ground nut oil and doses i.e. 1.25, 1.78 and 2.5mg/kg were administered by intramuscular route for 3 days. In other groups of infected mice these drugs were given individually for comparison. 2.5, 1.78 and 1.25 mg/kg and α/β arteether were given in combinations with 2.5 and 1.25 mg/kg Fansidar. One group of mice was kept as infected control. After treatment parasitaemia was recorded from tail blood smears of individual mouse. (Table-1)

The test system is the same in data set [6]. The data set can be described thus: Shorter regimen of α/β arteether (im) and Fansidar (oral) against multi drug resistant P. yoelii nigeriensis in Swiss mice. It counts as in vivo, Plasmodium yoelii nigeriensis. Here is the method: Experimental: Swiss mice (20±2 g) were inoculated intra peritoneal with 1×10^6 Plasmodium yoelii nigeriensis (malaria parasite) infected mouse red blood cells. Faosidar was suspended in tween 80 and then in triple distilled water and 2.5 mg/kg dose was administered in previously infected Swiss mice. Fansidar was administered by oral route for only 1 day i.e. on day 0 or day 1. α/β Arteether was dissolved in neutralized and sterilized ground nut oil and doses i.e. 7.5 mg/kg×1, ×2, 5 mg/kg×1, ×2 by intramuscular route were given in combination with 2.5 mg/kg ×1 dose of Fansidar. These doses of both the drugs were given individually for comparison. One group of mice was kept as infected control. After treatment parasitaemia was recorded from tail blood smears of individual mouse.

Data set [7] has the same test system. Briefly: Variable regimen of α/β arteether (oral, in oil) and Fansidar (oral) against multi drug resistant P. yoelii nigeriensis in Swiss mice. It counts as in vivo, Plasmodium yoelii nigeriensis. Here is the method:
Experimental: Swiss mice (20±2 g) were inoculated intra peritoneal with 1×10^6 Plasmodium yoelii nigeriensis (malaria parasite) infected mouse red blood cells. Fansidar was suspended in tween 80 and then in triple distilled water and different doses i.e., 5, 2.5 and 1.25 mg/kg were admimstered in previously infected Swiss mice. Fansidar was administered by oral route for only 1 day i.e. on day 0. α/β Arteether was dissolved in neutralized and sterilized ground nut oil and doses i.e. 25 mg/kg×1 ×4, 12.5mg/kg×4 were given orally in combination with 5.0, 2.5 and 1.25 mg/kg ×1 dose of Fansidar. These doses of both the drugs were given individually for comparison. One group of mice was kept as infected control. After treatment parasitaemia was recorded from tail blood smears of individual mouse and their mean parasitaemia was calculated.

The test system is the same in data set [8]. Briefly: α/β arteether (oral, aqueous) and Fansidar (oral) against multi drug resistant P. yoelii nigeriensis in Swiss mice. It counts as in vivo, Plasmodium yoelii nigeriensis. Here is the method: Experimental: Swiss mice (20±2 g) were inoculated intra peritoneal with 1×10^6 Plasmodium yoelii nigeriensis (malaria parasite) infected mouse red blood cells. Fansidar was suspended in tween 80 and then in triple distilled water and different doses i.e. 2.5 and 1.25 mg/kg were administered in previously infected Swiss mice. Fansidar was administered by oral route for only 1 day i.e. on day 0 α/β Arteether was dissolved in tween 80 and triple distilled water and doses i.e. 24 and 12 and 6 mg/kg×4 were given orally in combination with 2.5 and 1.25 mg/kg ×1 dose of Fansidar. These doses of both the drugs were also given individually for comparison. One group of mice was kept as infected control. After treatment parasitaemia was recorded from tail blood smears of individual mouse and their mean parasitaemia was calculated.

Data set [9] concerns P. yoelii nigeriensis. The data set can be described thus: Curative dose against P. yoelii nigeriensis in swiss mice. The data set is classed as in vivo, Plasmodium yoelii nigeriensis. As to conditions: for three days (x3), intramuscular. Here is the method:
The curative dose of α,β arteether against P. yoelii nigeriensis in gwiss mice (a murine model equivalent to P. falciparum in human) is 7.5 mg/kg for three days. Sulfadoxin/pyrimethtnine combination is usually given for P. falciparum infection, to adult humans as a single dose of 1500 mg sulfadoxin and 75 mg pyremethamine (usually in 3 tablets of 500 mg sulfadoxin and 25 mg pyremethamine) (practical chemotherapy of malaria, WHO, Geneva 1990). For children if they are below 40 kg, only 2 tablets are recommended. […] Although resistance to Fansidar is documented in expatriates in East Africa (Schapira et al. 1986), the drug is reported to be generally effective in the indigenous population (Spencer et al. 1984) and it is treated as second line of drug and is the only affordable drug for chloroquine resistant cases in developing countries. In combination the proposed doses of α,β arteether plus sulfadoxin and pyrimethamine for humans would be 150 mg×3 (im injections) or 450-750 mg×5 (oral dose) of α,β arteether with three tablets of 500 mg sulfadoxin and 25 mg of pyrimethamine for P. falciparum. The proposed combination therapy will certainly reduce the incidence of recrudescence and new infection in high transmission areas.

Data set [10] deals with P. falciparum. To be noted: arteether 150 mg i.m. daily for three days, uncomplicated P. falciparum malaria, cited from earlier work.
The test system of data set [11] is P. falciparum. As to conditions: 211 patients of complicated P. falciparum malaria; cited from earlier work.
The mark [12] stands for this setting: arteether 1.25 mg/kg x3 im alone.
Setting [13] is: arteether 1.78 mg/kg x3 im alone.
Setting [14] is: arteether 2.5 mg/kg x3 im alone.
The mark [15] stands for this setting: arteether 5.0 mg/kg x1 (day 0) im alone.
The mark [16] stands for this setting: arteether 5.0 mg/kg x2 (days 0, 1) im alone.
Setting [17] is: arteether 7.5 mg/kg x1 (day 0) im alone.
Where [18] appears, read: arteether 7.5 mg/kg x2 (days 0, 1) im alone.
The mark [19] stands for this setting: arteether 12.5 mg/kg x4 oral (in oil) alone.
Where [20] appears, read: arteether 25.0 mg/kg x4 oral (in oil) alone.
Where [21] appears, read: arteether 6 mg/kg x4 oral (aqueous) alone.
Setting [22] is: arteether 12 mg/kg x4 oral (aqueous) alone.
The mark [23] stands for this setting: arteether 24 mg/kg x4 oral (aqueous) alone.

Turning to `C=C[C@H]1C[N@@]2CC[C@H]1C[C@H]2[C@H](O)c1ccnc2ccc(OC)cc12` [quinine], the “reduction in parasitaemia (time)” value in data set [1] is 34.5 h. Besides, the recrudescence in [2] (10 mg/kg x7 days) is 16%.
On to `C[C@H]1[C@H](OC(=O)CCC(=O)O)O[C@@H]2O[C@@]3(C)CC[C@H]4[C@H](C)CC[C@@H]1[C@@]24OO3` [artesunate], for which the median lethal dose (LD50) in data set [3] is 475 mg/kg.
In the case of `C[C@@H]1CC[C@H]2[C@@H](C)C(=O)O[C@@H]3O[C@@]4(C)CC[C@@H]1[C@]32OO4` [artemisiain, artemisinin], the “reduction in parasitaemia (time)” value in [1] was 16 h. The recrudescence in [2] (20 mg/kg x3 days) is given as 38%; in [2] (20 mg/kg x5 days), 15%.
On to `COc1ncnc(NS(=O)(=O)c2ccc(N)cc2)c1OC` [sulfadoxin], for which the “concentration giving 100% inhibition in vitro” value in [4] is < 5.0 mmol/lit.
Regarding `CCO[C@H]1O[C@@H]2O[C@@]3(C)CC[C@H]4[C@H](C)CC[C@@H]([C@H]1C)[C@@]24OO3` [α/β arteether, α,β-Arteether], in [5] (setting [12]), the “Cure rate (%)” value stood at 0.0%, the “Day 4 mice negative/total” value is 3/6 and the “Day 7 mice negative/total” value is reported as 0/6. In [5] (setting [13]), the “Cure rate (%)” value was 16.6%, the “Day 4 mice negative/total” value is listed as 6/6, the “Day 7 mice negative/total” value is 5/6 and the “Day 14 mice negative/total” value was 2/2. Further, in [5] (setting [13]), the “Day 18 mice negative/total” value is recorded as 1/2, the “Day 21 mice negative/total” value was 1/2 and the “Day 28 mice negative/total” value is 1/1. For the same molecule, in data set [5] (setting [14]), the “Cure rate (%)” value turned out to be 66.6%, the “Day 4 mice negative/total” value was 6/6, the “Day 7 mice negative/total” value is 6/6 and the “Day 14 mice negative/total” value is given as 4/4. Moreover, in data set [5] (setting [14]), the “Day 18 mice negative/total” value was 4/4, the “Day 21 mice negative/total” value is given as 4/4 and the “Day 28 mice negative/total” value is listed as 4/4. Besides, in data set [6] (setting [15]), the “Cure rate (%)” value stood at 0.0%, the “Day 4 mice negative/total” value is listed as 6/6, the “Day 7 mice negative/total” value is listed as 2/6 and the “Day 10 mice negative/total” value was 0/4. Besides, in [6] (setting [16]), the “Cure rate (%)” value amounted to 83.3%, the “Day 4 mice negative/total” value is listed as 6/6, the “Day 7 mice negative/total” value is 6/6 and the “Day 10 mice negative/total” value is 6/6. Moreover, in [6] (setting [16]), the “Day 14 mice negative/total” value is on record as 6/6, the “Day 21 mice negative/total” value is listed as 5/5 and the “Day 28 mice negative/total” value is reported as 5/5. Further, in [6] (setting [17]), the “Cure rate (%)” value worked out at 83.3%, the “Day 4 mice negative/total” value is reported as 6/6, the “Day 7 mice negative/total” value is reported as 6/6 and the “Day 10 mice negative/total” value is 6/6. For the same molecule, in data set [6] (setting [17]), the “Day 14 mice negative/total” value was 6/6, the “Day 21 mice negative/total” value was 5/5 and the “Day 28 mice negative/total” value is reported as 5/5. Moreover, in data set [6] (setting [18]), the “Cure rate (%)” value was found to be 100%, the “Day 4 mice negative/total” value is listed as 6/6, the “Day 7 mice negative/total” value was 6/6 and the “Day 10 mice negative/total” value is 6/6. Besides, in [6] (setting [18]), the “Day 14 mice negative/total” value was 6/6, the “Day 21 mice negative/total” value is on record as 6/6 and the “Day 28 mice negative/total” value was 6/6. Also, in [7] (setting [19]), the “% Cure rate” value came to 28.5%, the “Mice remained negative on day 4” value was 5/7, the “Mice remained negative on day 7” value is 3/7 and the “Mice remained negative on day 14” value was 2/2. Besides, in [7] (setting [19]), the “Mice remained negative on day 21” value is 2/2 and the “Mice remained negative on day 28” value is 2/2. Further, in [7] (setting [20]), the “% Cure rate” value amounted to 57.1%, the “Mice remained negative on day 4” value is recorded as 7/7, the “Mice remained negative on day 7” value is 7/7 and the “Mice remained negative on day 14” value is recorded as 4/4. In data set [7] (setting [20]), the “Mice remained negative on day 21” value is on record as 4/4 and the “Mice remained negative on day 28” value is on record as 4/4. In addition, in [8] (setting [21]), the “% Cure rate” value is listed as 0.0%, the “Mice remained negative on day 4” value is reported as 5/7 and the “Mice remained negative on day 7” value was 0/3. Moreover, in data set [8] (setting [22]), the “% Cure rate” value turned out to be 0.0%, the “Mice remained negative on day 4” value is 3/7 and the “Mice remained negative on day 7” value was 0/5. In [8] (setting [23]), the “% Cure rate” value was 14.28%, the “Mice remained negative on day 4” value was 7/7, the “Mice remained negative on day 7” value is 3/6 and the “Mice remained negative on day 14” value is given as 1/3. In addition, in data set [8] (setting [23]), the “Mice remained negative on day 21” value is on record as 1/2 and the “Mice remained negative on day 28” value is 1/1. For the same molecule, the “curative dose with oral formulation (calculated)” value in data set [8] (x4, oral, aqueous (tween 80/water)) was 72 mg/kg. Moreover, in [9], the curative dose turned out to be 7.5 mg/kg. The LD50 in [3] is recorded as 1250 mg/kg. Moreover, in [10] (267 patients), the cure rate is reported as 97%. For the same molecule, in [10], the fever clearance time is 1 to 7 days and the parasite clearance time is 1 to 3 days. Moreover, in data set [11], the fever clearance time is 24 to 168 h and the overall cure rate is 93%.
On to `CO[C@H]1O[C@@H]2O[C@@]3(C)CC[C@H]4[C@H](C)CC[C@@H]([C@H]1C)[C@@]24OO3` [artemether], for which the LD50 in data set [3] is 263 mg/kg.
